Data published in patent US8435588B2, “High-potency sweetener composition with an anti-inflammatory agent and compositions sweetened therewith” (The Coca-Cola Company, priority 2005, dated 2013).

Assays:
[1] = Rate of dissolution of rebaudioside A polymorph and amorphous forms in H2O; type: physicochemical
[2] = type: physicochemical
Experimental: A solution of rebaudioside A (>97% pure by HPLC ) was prepared in double distilled water (12.5 gm in 50 mL, 25% concentration) by stirring the mixture at 40° C. for 5 minutes. An amorphous form of rebaudioside A was formed by immediately using the clear solution for spray drying with the Lab-Plant spray drier SD-04 instrument (Lab-Plant Ltd., West Yorkshire, U.K.). The solution was fed through the feed pump into the nozzle atomizer which atomized it into a spray of droplets with the help of a constant flow of nitrogen/air.

[3] = Sensory evaluation of sweetness linger by expert panel; type: in vivo; parameters: key: 0: no sweetness linger; 1: very slight sweetness linger; 2: slight sweetness linger; 3: moderate sweetness linger; 4: moderately high sweetness linger; 5: high sweetness linger; settings: for sweetness linger: scale 0-5; for Sweetness Linger rating (defined for controls of the protocol): sucrose, 500 ppm control sample, values defined as scale anchors
Experimental: Sensory evaluation of the samples prepared in Example Set G was carried out under the following protocol, similar to that described hereinabove. In this test protocol, none of the samples were swallowed. All samples were expectorated and the mouth was rinsed with water after the tasting. Immediately upon sensing maximal sweetness, the sample was expectorated, the mouth was rinsed with water and the rate of sweetness decay (“Sweetness Linger”) was measured, where attention was focused on the sweetness 3-4 min after the water rinse. After sample tasting was complete, a salty oyster cracker was chewed followed by a water rinse, and at least 5 minutes followed before tasting the next sample. The sweetness linger was rated by a panel of experts in the sensory evaluation of foods and beverages using the following scale: 0=no sweetness linger, 1=very slight sweetness linger, 2=slight sweetness linger, 3=moderate sweetness linger, 4=moderately high sweetness linger, 5=high sweetness linger.
The “Sweetness Linger” rating for sucrose observed by this protocol is defined as 0. The Sweetness Linger of a 500 ppm of EBA control sample is defined as 5. Experimental samples were tasted by the same protocol, always allowing sufficient time between samples to ensure re-equilibration of the sensory system. Re-tasting of control samples during the course of the experiment was allowed and encouraged.
The comparison taste test was performed between two controls and addition of sweet taste improving additive on the onset and/or sweetness linger.
Sweet taste improving compositions were combined with a EBA solution to determine their effect on sweetness linger. Screening of the initial sample, or further dilutions, allowed identification of concentrations which were just above-threshold, herein defined as “near-threshold concentrations.” The near-threshold additive concentrations, a 6- to 100-fold higher additive concentration (depending on the off-taste intensity), and a mid-level additive concentration (halfway between the near-threshold and higher additive concentration) were evaluated to determine the effect on sweetness linger of a REBA solution.
Formulations of a 500 ppm EBA in a phosphoric acid solution (75%) at a pH of 2.5 with phosphoric acid or a pH of 3.1 with citric acid and potassium citrate were prepared prior to the addition of the additives at the three levels of concentration.
Sensory evaluation using the protocol described in Example Set G then was used to evaluate the sweetness linger of the REBA solutions.

C=C1C[C@@]23CC[C@H]4[C@@](C)(CCC[C@@]4(C)C(=O)O[C@@H]4O[C@H](CO)[C@@H](O)[C@H](O)[C@H]4O)[C@@H]2CC[C@]1(O[C@@H]1O[C@H](CO)[C@@H](O)[C@H](O[C@@H]2O[C@H](CO)[C@@H](O)[C@H](O)[C@H]2O)[C@H]1O[C@@H]1O[C@H](CO)[C@@H](O)[C@H](O)[C@H]1O)C3 [Form 1, rebaudioside A]
Rate of dissolution in H2O at 25° C. [1]: Very low (<0.2%/ %/60 minutes

C=C1C[C@@]23CC[C@H]4[C@@](C)(CCC[C@@]4(C)C(=O)O[C@@H]4O[C@H](CO)[C@@H](O)[C@H](O)[C@H]4O)[C@@H]2CC[C@]1(O[C@@H]1O[C@H](CO)[C@@H](O)[C@H](O[C@@H]2O[C@H](CO)[C@@H](O)[C@H](O)[C@H]2O)[C@H]1O[C@@H]1O[C@H](CO)[C@@H](O)[C@H](O)[C@H]1O)C3 [Form 2, rebaudioside A]
Rate of dissolution in H2O at 25° C. [1]: Intermediate (<30%/ %/5 minutes

C=C1C[C@@]23CC[C@H]4[C@@](C)(CCC[C@@]4(C)C(=O)O[C@@H]4O[C@H](CO)[C@@H](O)[C@H](O)[C@H]4O)[C@@H]2CC[C@]1(O[C@@H]1O[C@H](CO)[C@@H](O)[C@H](O[C@@H]2O[C@H](CO)[C@@H](O)[C@H](O)[C@H]2O)[C@H]1O[C@@H]1O[C@H](CO)[C@@H](O)[C@H](O)[C@H]1O)C3 [Form 3, rebaudioside A]
Rate of dissolution in H2O at 25° C. [1]: High (>30%/5 %/5 minutes

C=C1C[C@@]23CC[C@H]4[C@@](C)(CCC[C@@]4(C)C(=O)O[C@@H]4O[C@H](CO)[C@@H](O)[C@H](O)[C@H]4O)[C@@H]2CC[C@]1(O[C@@H]1O[C@H](CO)[C@@H](O)[C@H](O[C@@H]2O[C@H](CO)[C@@H](O)[C@H](O)[C@H]2O)[C@H]1O[C@@H]1O[C@H](CO)[C@@H](O)[C@H](O)[C@H]1O)C3 [Form 4, rebaudioside A]
solubility in water at room temperature [2]: > 35.0%
Rate of dissolution in H2O at 25° C. [1]: High (>35.0%/ %/5 minutes

C=C1C[C@@]23CC[C@H]4[C@@](C)(CCC[C@@]4(C)C(=O)O[C@@H]4O[C@H](CO)[C@@H](O)[C@H](O)[C@H]4O)[C@@H]2CC[C@]1(O[C@@H]1O[C@H](CO)[C@@H](O)[C@H](O[C@@H]2O[C@H](CO)[C@@H](O)[C@H](O)[C@H]2O)[C@H]1O[C@@H]1O[C@H](CO)[C@@H](O)[C@H](O)[C@H]1O)C3 [REBA, rebaudioside A]
sweetness linger ([3]; Example Set G: 400 ppm REBA in citric acid/potassium citrate composition equivalent to diet lemon-lime beverage, sugar control 8 g in 100 ml citrate buffer): 5
sweetness linger ([3]; Example Set H: 500 ppm REBA (H41: 360 ppm) in carbon-treated water, phosphoric acid (75%) to pH 2.4-2.5, sugar control 10 g in 100 ml): 5
Sweetness Linger rating (defined for controls of the protocol) [3]: 5

OC[C@H]1O[C@@](CO)(O[C@H]2O[C@H](CO)[C@@H](O)[C@H](O)[C@H]2O)[C@@H](O)[C@@H]1O [sugar, sucrose, reference compound]
Sweetness Linger rating (defined for controls of the protocol) [3]: 0
